Results: paper PMC4761355, “Pre-clinical evaluation of eight DOTA coupled gastrin-releasing peptide receptor (GRP-R) ligands for in vivo targeting of receptor-expressing tumors” (EJNMMI Research, 2016)
Read-outs that look alike come from different tables or passages of the source. Where a SMILES comes first, the peptide text is derived from it. [ ]: non-standard residue; d: D form. The star is where a group is joined. DOTA = O=C(O)CN1CCN(CC(=O)O)CCN(CC(=O)*)CCN(CC(=O)O)CC1; Sta = CC(C)C[C@H](N)[C@@H](O)CC(=O)O; Cha = N[C@@H](CC1CCCCC1)C(=O)O; Nle = CCCC[C@H](N)C(=O)O; AEEA = NCCOCCOCC(=O)O; Sar = CNCC(=O)O

Key:
[1] = target: T1, gastrin-releasing peptide receptor (GRP-R) on PC-3 human prostate cancer cells (Homo sapiens, UniProt P30550); assay: Saturation binding experiments on whole PC-3 cells with 111In-labeled DOTA-PEG4-BN conjugates; conditions: 4 °C; for B max (binding sites/cell) *10^5: 111In-labeled
T1 construct: endogenous in cells; host or cells: PC-3 human prostate cancer cells
T1 sequence (P30550 whole entry): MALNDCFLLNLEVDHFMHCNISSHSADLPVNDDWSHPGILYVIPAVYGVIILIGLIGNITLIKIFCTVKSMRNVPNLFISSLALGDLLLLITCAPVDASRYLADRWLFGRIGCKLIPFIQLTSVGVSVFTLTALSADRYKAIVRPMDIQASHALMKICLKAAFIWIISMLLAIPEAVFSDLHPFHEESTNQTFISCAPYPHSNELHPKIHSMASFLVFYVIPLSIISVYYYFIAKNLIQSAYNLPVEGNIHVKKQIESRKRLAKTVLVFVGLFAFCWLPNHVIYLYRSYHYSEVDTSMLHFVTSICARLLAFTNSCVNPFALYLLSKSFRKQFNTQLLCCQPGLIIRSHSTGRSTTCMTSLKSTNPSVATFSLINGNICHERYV
Description: DOTA-PEG4-BN conjugates were studied in vitro performing saturation binding experiments on whole cells. The DOTA coupled derivatives were labeled in Eppendorf tubes containing 10 μL of ^111InCl3 (50–150 KBq/μL), 1 nmol of peptide (10 μM final concentration), and sodium acetate buffer (0.4 M, pH 5) adjusted to a final volume of 100 μL. The solution was incubated for 30 min at 95 °C in a heating block. Silica gel thin layer chromatography using 0.1 N sodium citrate (pH 5) as mobile phase was utilized for quality control. […] Saturation of free chelators with cold indium was not performed. Confluent PC-3 human prostate cancer cells were seeded in six-well plates (~1.0 × 10^6 cells) 24 h before starting the experiments. Increasing concentrations of the ^111In-DOTA-peptide ranging from 50 to 0.05 nM were assigned to different wells. For blocking experiments, excess of the respective unlabeled peptide was used. For each radioligand, triplicates were prepared for every concentration, for both total binding and nonspecific binding. Before adding the radioligands to the wells, the plates were placed on ice for 30 min. After adding the radioligands and the blocking for nonspecific binding, the plates were incubated for 1 h at 4 °C. Afterwards, the binding buffer was removed and the cells were washed twice with ice-cold phosphate-buffered saline (PBS; pH 7.4). Cell-bound radioactivity was subsequently recovered by trypsinization of the wells. Radioactivity in the bound and free fractions was determined with a WIZARD gamma counter (Wallac, Turku, Finland). Specific binding was calculated by subtracting nonspecific from total binding at each concentration of radioligand. Affinity (Kd) and binding site density (Bmax) were calculated from Scatchard plots using Prism software (GraphPad Software Inc.).
Saturation binding experiments were performed on PC-3 cells at 4 °C.

PC-3 xenografts [2] = assay: Biodistribution in nude mice bearing subcutaneous PC-3 xenografts; format: in vivo, CD1 nude mice
Description: (§1) For animal experiments, the institutional and national guide for the care and use of laboratory animals was followed. CD1 nude mice (n = 36, female, 6 weeks old, 18-22 g body weight) were subcutaneously injected in the right thigh with 2 × 10^6 PC-3 cells in 300 μl of a medium-to-matrigel solution (50:50, v:v, BD Biosciences). […] DOTA-PEG4-BN conjugates were radiolabelled with ^111In as described elsewhere, and 1.85 MBq (0.25 μg, 7.4 MBq/μg in 100 μl NaCl) of radiopharmaceutical was injected in the tail vein of each animal. Injected dose was determined by counting the syringe before and after injection. At 1 h post injection, three mice per group were anesthetized and placed on a horizontal support for planar imaging. The same procedure was repeated at 6 h and 24 h post injection. Images were acquired for 60 to 90 s with a high-resolution scintigraphic camera equipped with a square tungsten collimator integrated with a CsI(Tl) scintillation structure, coupled to a Hamamatsu […] Flat Panel Position Sensitive Photomultiplier Tube (PSPMT), a pure tungsten shielding housing, a charge readout electronics, and a data acquisition system for online image display. Region of interest (ROI) analysis was performed by drawing a region over the visible tumor (target) and copying it to the opposite thigh (background). The counts in the tumor ROI divided by the counts in the background ROI provided tumor-to-background (T/B) ratios. After each imaging session, mice were euthanized. The organs and the tumors were excised and weighed, and the radioactivity was determined using a single well γ-counter. Results were expressed as percentage of injected dose per gram (%ID/g) of tissue.

[3] = Serum stability of 177Lu-labeled peptides in human serum; format: in vitro ADME; conditions: human serum (freshly prepared), 37 °C
Description: Quality controls to determine the labeling yield and the radiochemical purity were performed using radio-HPLC. Radiolabeled peptides were utilized without further purification. […] The mixture was incubated in a 5 % CO2, 37 °C. At different time points, 100 μL aliquots (in triplicates) were removed and treated with 200 μL of EtOH to precipitate serum proteins. Samples were then centrifuged for 15 min at 5000 rpm (2655g). After centrifugation, 50 μL of supernatant was removed and counted in a γ-well counter; the sediment was washed twice with 1 mL of EtOH and counted. The activity in the supernatant was compared with the activity in the pellet to obtain the percentage of peptide not bound to proteins or radiometal transferred to serum proteins. The supernatant was also analyzed with radio-HPLC (eluents: A = 0.1 % trifluoroacetic acid in water and B = acetonitrile; gradient 0–25 min 95–50 % B) to determine the relative amount of intact peptide and its metabolites in the serum. The half-life was calculated fitting a first-order reaction to the experimental data (Equation 1) using Prism software (GraphPad Software Inc.).

[4] = Biodistribution in nude mice bearing subcutaneous PC-3 xenografts; format: in vivo, CD1 nude mice; conditions: female, CD1 nude, mouse, blood, iv, 0.25 μg, total radioactivity; 111In-labeled, 1 h post injection
Description: as §1

PC-3 xenografts [5] = assay: Gamma camera planar imaging, tumor-to-background ROI analysis in mice with PC-3 xenografts; format: in vivo, CD1 nude mice
Description: as §1, with “Region of interest (ROI) analysis was performed by drawing a region over the visible tumor (target) and copying it to the opposite thigh (background). The counts in the tumor ROI divided by the counts in the background ROI provided tumor-to-background (T/B) ratios. After each imaging session, mice were euthanized.” left out

[6] = 111In-labeled, i.v., 1, 6, 24 h
[7] = first-order fit, read-out: Serum half-life (converted)

Row | SMILES | B max (binding sites/cell) *10^5 [1] [binding sites/cell *10^5] | half-life at 0.6 nmol/mL [3, 7] [h] | Tumor targeting / uptake in PC-3 xenografts (in words) (PC-3 xenografts [2]; [6]) | other results
1 | CSCC[C@H](NC(=O)[C@H](CC(C)C)NC(=O)[C@H](Cc1c[nH]cn1)NC(=O)CNC(=O)[C@@H](NC(=O)[C@H](C)NC(=O)[C@H](Cc1c[nH]c2ccccc12)NC(=O)[C@H](CCC(N)=O)NC(=O)COCCOCCNC(=O)COCCOCCNC(=O)CN1CCN(CC(=O)O)CCN(CC(=O)O)CCN(CC(=O)O)CC1)C(C)C)C(N)=O [BN1] | 2.45 ± 0.73 | – | rather poor | Blood clearance / circulating half-life (in words) (PC-3 xenografts [2]; mouse, in vivo, iv): very rapid blood clearance
2 | CCCC[C@H](NC(=O)[C@H](CC1CCCCC1)NC(=O)[C@H](Cc1c[nH]cn1)NC(=O)CNC(=O)[C@@H](NC(=O)[C@H](C)NC(=O)[C@H](Cc1c[nH]c2ccccc12)NC(=O)[C@H](CCC(N)=O)NC(=O)COCCOCCNC(=O)COCCOCCNC(=O)CN1CCN(CC(=O)O)CCN(CC(=O)O)CCN(CC(=O)O)CC1)C(C)C)C(N)=O [BN2, -Gln-Trp-Ala-Val-Gly-His-Cha-Nle-NH2] ({DOTA-AEEA-AEEA}-QWAVGH[Cha][Nle]-NH2) | 4.10 ± 1.23 | ~20 | – | –
3 | CCCC[C@H](NC(=O)[C@H](CC1CCCCC1)NC(=O)[C@H](Cc1c[nH]cn1)NC(=O)CNC(=O)[C@@H](NC(=O)[C@H](C)NC(=O)[C@H](Cc1c[nH]c2ccccc12)NC(=O)[C@H](CCC(N)=O)NC(=O)COCCOCCNC(=O)COCCOCCNC(=O)CN1CCN(CC(=O)O)CCN(CC(=O)O)CCN(CC(=O)O)CC1)C(C)C)C(=O)N[C@@H](CCC(=O)O)C(N)=O [BN3, -Gln-Trp-Ala-Val-Gly-His-Cha-Nle-Glu-NH2] ({DOTA-AEEA-AEEA}-QWAVGH[Cha][Nle]E-NH2) | – | 40.7 | – | Specific binding to PC-3 cells (in words) [1]: no specific binding was detectable
4 | CC(C)C[C@H](NC(=O)C[C@H](O)[C@H](CC(C)C)NC(=O)[C@H](Cc1c[nH]cn1)NC(=O)CNC(=O)[C@@H](NC(=O)[C@H](C)NC(=O)[C@H](Cc1c[nH]c2ccccc12)NC(=O)[C@H](CCC(N)=O)NC(=O)COCCOCCNC(=O)COCCOCCNC(=O)CN1CCN(CC(=O)O)CCN(CC(=O)O)CCN(CC(=O)O)CC1)C(C)C)C(N)=O [BN4, -Gln-Trp-Ala-Val-Gly-His-Sta-Leu-NH2] ({DOTA-AEEA-AEEA}-QWAVGH[Sta]L-NH2) | 5.54 ± 1.56 | 224 | very high initial uptake that dropped at later time points | tissue uptake at 1 h [4]: ~5 %ID/g; Blood clearance / circulating half-life (in words) (PC-3 xenografts [2]; [6]): longest circulating half-life of all tested compounds; Tumor-to-background (T/B) ratios in vivo (in words) (PC-3 xenografts [5]; 111In-labeled, tumor ROI vs opposite thigh): least favorable of all peptides

Continued, in another order:

Row | B max (binding sites/cell) *10^5 [1] [binding sites/cell *10^5] | half-life at 0.6 nmol/mL [3, 7] [h] | SMILES | Tumor targeting / uptake in PC-3 xenografts (in words) (PC-3 xenografts [2]; [6]) | other results
5 | 1.56 ± 0.39 | – | CC(C)C[C@H](NC(=O)C[C@H](O)[C@H](CC(C)C)NC(=O)[C@H](Cc1c[nH]cn1)NC(=O)CN(C)C(=O)[C@@H](NC(=O)[C@H](C)NC(=O)[C@H](Cc1c[nH]c2ccccc12)NC(=O)[C@H](CCC(N)=O)NC(=O)COCCOCCNC(=O)COCCOCCNC(=O)CN1CCN(CC(=O)O)CCN(CC(=O)O)CCN(CC(=O)O)CC1)C(C)C)C(N)=O [BN5, -Gln-Trp-Ala-Val-NMeGly-His-Sta-Leu-NH2] ({DOTA-AEEA-AEEA}-QWAV[Sar]H[Sta]L-NH2) | – | –
6 | – | 208 | CC(C)C[C@H](NC(=O)C[C@H](O)[C@H](CC(C)C)NC(=O)[C@H](Cc1c[nH]cn1)NC(=O)CNC(=O)[C@@H](NC(=O)[C@H](C)NC(=O)[C@H](Cc1c[nH]c2ccccc12)NC(=O)[C@H](CCC(N)=O)NC(=O)[C@@H](Cc1ccccc1)NC(=O)COCCOCCNC(=O)COCCOCCNC(=O)CN1CCN(CC(=O)O)CCN(CC(=O)O)CCN(CC(=O)O)CC1)C(C)C)C(N)=O [BN6, -DPhe-Gln-Trp-Ala-Val-Gly-His-Sta-Leu-NH2] | – | –
7 | – | ~20 | CCCC[C@H](NC(=O)[C@H](CC1CCCCC1)NC(=O)[C@H](Cc1c[nH]cn1)NC(=O)CNC(=O)[C@@H](NC(=O)[C@H](C)NC(=O)[C@H](Cc1c[nH]c2ccccc12)NC(=O)[C@H](CCC(N)=O)NC(=O)[C@@H](Cc1ccccc1)NC(=O)COCCOCCNC(=O)COCCOCCNC(=O)CN1CCN(CC(=O)O)CCN(CC(=O)O)CCN(CC(=O)O)CC1)C(C)C)C(N)=O [BN7, -DPhe-Gln-Trp-Ala-Val-Gly-His-Cha-Nle-NH2] | overall poor targeting to the receptor-positive xenografts | Blood clearance / circulating half-life (in words) (PC-3 xenografts [2]; [6]): very rapid blood clearance
8 | – | 414 | CC(C)C[C@H](NC(=O)C[C@H](O)[C@H](CC(C)C)NC(=O)[C@H](Cc1c[nH]cn1)NC(=O)CN(C)C(=O)[C@@H](NC(=O)[C@H](C)NC(=O)[C@H](Cc1c[nH]c2ccccc12)NC(=O)[C@H](CCC(N)=O)NC(=O)[C@@H](Cc1ccccc1)NC(=O)COCCOCCNC(=O)COCCOCCNC(=O)CN1CCN(CC(=O)O)CCN(CC(=O)O)CCN(CC(=O)O)CC1)C(C)C)C(N)=O [BN8, DOTA-PEG-DPhe-Gln-Trp-Ala-Val-NMeGly-His-Sta-Leu-NH2] | highest tumor uptake | half-life at 0.6 nmol/mL ([3]; read-out: Serum/plasma half-life): > 360 h; Imaging contrast of tumor uptake (in words) (PC-3 xenografts [5]; gamma camera, 6 h post injection): best contrast of tumor uptake compared to other organs
